# Legend:
# [1] = target: T1, trypsin egg white inhibitor (ovomucoid) (Gallus gallus, UniProt P01005); experiment: BEISA: competition of unlabelled proteases with biotinylated trypsin for coated inhibitor; format: binding; conditions: ovomucoid-coated plate
# T1 construct: purchased Sigma Chemical Co. or Fisher Scientific Co
# T1 sequence (P01005 25-210): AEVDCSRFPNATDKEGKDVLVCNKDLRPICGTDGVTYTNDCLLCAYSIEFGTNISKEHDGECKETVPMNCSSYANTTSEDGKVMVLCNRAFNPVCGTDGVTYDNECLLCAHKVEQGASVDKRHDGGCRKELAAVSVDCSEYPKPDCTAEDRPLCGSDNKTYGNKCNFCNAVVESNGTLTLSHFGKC
# Procedure: The 96-well microtiter plate (Falcon 3911) was coated with trypsin egg white inhibitor (ovomucoid, 4 ug/100 ul/well) at […] overnight. The plate was washed once using PBST {[PBS, NaCl, 9.00; Na2HPO4, 1.15; NaH2PO4, 0.23 (g/l) pH 7.2] plus 0.05% Tween-20} and 200 ul of 5% skim milk was added to each well of the plate followed by incubation at 37° C. for 2 hours. The plate was rinsed twice with PBST and 50 ul of PBS was added to each well of the plate except for those in column one where 100 ul of PBS was added. Unlabelled trypsin (50 ul of 400 ug/ml) was added to the wells of the second column followed by successive double dilutions of trypsin in wells up to and including those in column 11. Biotinylated trypsin in PBS (50 ul of 1:3000 dilution of the stock to yield approximately 2 ug/100 ul/well) was added to each well except those in the first column followed by incubation at 37° C. for 1 hour. The final volume in each well was 100 ul. The blank set of wells with no trypsin (column 1) served as the negative control while the last set of wells (column 12) with biotinylated trypsin but no unlabelled trypsin served as the positive control. […] The absorbency was then read at 405 nm using a microplate reader (Bio-Rad laboratories Inc. Mississauga, ON, Canada, model 450). […]
# biotinylated α-casein = experiment: Solid phase protease activity assay using biotinylated casein; format: biochemical
# Procedure: Preparation of biotinylated casein: 12 mg α-casein in 1 ml of 0.1 M pH 7.2 phosphate-buffer saline [PBS, NaCl, 9.00; Na2HPO4, 1.15; NaH2PO4, 0.23 (g/l)] was allowed to react with 3.6 mg NHS-biotin in 150 ul DMSO for 2 hours at room temperature with gently shaking.
# Assay procedure for protease activity using biotinylated casein: The microtitre plates except for the first column of 8 wells were coated using biotinylated α-casein in PBS (0.13 ug/well/100 ul) and incubated for 2 hours at 37° C. The plates were washed three times with 0.1 M PBST (PBS with 0.05% Tween-20). Different concentrations of the enzyme solution as indicated in FIGS. 12-14 (100 ul) were diluted with the appropriate buffer (see Table 2). They were added in triplicate to the wells of a plate followed by incubating in a humid atmosphere at 37° C. for 30 minutes. The plate was washed three times using PBST to terminate the protease reaction. A streptavidin-alkaline phosphatase solution (100 ul/well, 1:1000 dilution in bicarbonate buffer pH 9.5) was added to all wells in the plate except for the first column of 8 wells (as blank) and the plate was incubated at room temperature for 30 minutes. The blank set of wells contained only PBS, no added enzyme and no coating with biotinylated casein. The reaction was stopped by emptying and washing the plate six times with PBST. The pNPP substrate (100 ul/well, 1 mg/ml in 10% diethanolamine buffer pH9.8) was added to each well of the plate followed by incubation at room temperature for about 20 minutes. The absorbency was then read at 405 nm using a microplate reader (Bio-Rad laboratories, Ltd, Mississauga, ON, Canada; model 450). The best sensitivity was obtained when the maximum absorbency was around 2.0 optical density units.
# [2] = optimal pH of each protease, 37° C., 30 minutes
substance,measurement,setting,value
trypsin,Concentration of trypsin that could be detected,[1],0.1 to 1.0 µg/mL
same,Sensitivity: amount of enzyme required to produce a 10% decrease in maximal absorbency,biotinylated α-casein; 0.5 hour hydrolysis,30 ng/100 ul
same,Hydrolysis of biotin-casein by proteases,biotinylated α-casein; [2],Yes
same,Sensitivity (amount of enzyme required to hydrolyse 10% of the biotinylated α-casein),biotinylated α-casein; [2],30 ng/100 ul/sample
